This is an account of results in patent publication US11963960B2 (Flash Therapeutics, LLC, priority 2020, dated 2024).

Structures are written as SMILES. “Also recorded” adds a separate entry of the source. Like-named read-outs stand apart in the source and are kept apart here.

The nature of data set [1]: Assessment of In Vivo Pharmacokinetics in Beagle dog. To be noted: for bioavailability in vivo / plasma clearance in vivo: dog, comparison in words; for Dog BAV: male Beagle dog, iv or po at 1 mg/kg or 3 mg/kg. How it is done:
Assessment of In Vivo Pharmacokinetics
A total of 6 Male Non-naïve Beagle dog, weighing approximately 8.00-10.00 kg (Beijing Marshall Biotechnology Co. LTD), were dosed by intravenous injection (iv) or oral gavage (po) at 1 mg/kg or 3 mg/kg. The vehicles of IV and PO are 100% saline and 100% (0.5% MC in water), respectively. The IV dose was conducted via cephalic vein injection, PO via gavage administration. The animals were restrained manually, and approximately 0.5 mL blood/time point was collected from cephalic vein into pre-cooled K2EDTA tubes. Blood sample was put on wet ice and centrifuged at 4° C. (2000 g, 5 min) to obtain plasma within 15 minutes of sample collection. Plasma samples were analyzed by UPLC/MS-MS. PK parameters were estimated by non-compartmental model using WinNonlin6.4.

Data set [2] is described as follows: Assessment of In Vitro Metabolic Stability in dog liver microsomes. The class given is in vitro ADME. Particulars: for t1/2 in dog LM compared with the compound of example 1: comparison in words; for half-life at 1 μM: dog liver microsomes 0.5 mg/mL, 1 μM compound, NADPH, 37° C., read-out: Dog LM t1/2. How it is done:
Assessment of In Vitro Metabolic Stability
Dog liver microsomes (0.5 mg/mL) were purchased from Corning. Stock solutions were prepared at 10 mM in DMSO for the test compound. Aliquots of the stock solutions were diluted to 0.5 mM with acetonitrile, and then further diluted upon the addition of liver microsomes/buffer to 1.5 μM. An aliquot of 30 μL of 1.5 μM solutions was mixed with 15 μL of 6 mM NADPH and the final concentration of NADPH was 2 mM, which had been pre-warmed to 37° C. Test compound and Ketanserin final concentrations were 1 μM. The plates were kept in a 37° C. water bath for the duration of the experiment. At each time point (0, 5, 15, 30, 45 minutes), 135 μL of acetonitrile was added into corresponding wells. After the final time point was quenched by acetonitrile, the assay plates were shaken (IKA, MTS 2/4) for 10 min (600 rpm/min) and then centrifuged at 5,594 g for 15 min (Thermo Multifuge×3R). Aliquots of the supernatant were taken, diluted 1:1 into distilled water, and analyzed by LC-MS/MS. The peak area response ratio to internal standard (PARR) of the compounds at 5, 15, 30, 45 minutes was compared to the PARR at time 0 to determine the percent of test compound remaining at each time point. Half-lives were calculated using Excel software, fitting to a single-phase exponential decay equation.

Data set [3] addresses N-terminally GST-tagged HCK (75-526) (Homo sapiens (Human), UniProt P08631). The data set is described as follows: HCK Kinase Assay (ProFluor Src-Family Kinase Assay). To be noted: for IC50: 50 μM ATP. In kind it is biochemical. In a few lines: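 ProFluor Src-family format: after the kinase reaction, protease solution was added for 60 min at room temperature (22-25° C), then stabilizer.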

Setting [4] is: HCK inhibitory activity, read-out: HCK Activity.

N-terminally GST-tagged HCK (75-526), sequence (P08631 75-526): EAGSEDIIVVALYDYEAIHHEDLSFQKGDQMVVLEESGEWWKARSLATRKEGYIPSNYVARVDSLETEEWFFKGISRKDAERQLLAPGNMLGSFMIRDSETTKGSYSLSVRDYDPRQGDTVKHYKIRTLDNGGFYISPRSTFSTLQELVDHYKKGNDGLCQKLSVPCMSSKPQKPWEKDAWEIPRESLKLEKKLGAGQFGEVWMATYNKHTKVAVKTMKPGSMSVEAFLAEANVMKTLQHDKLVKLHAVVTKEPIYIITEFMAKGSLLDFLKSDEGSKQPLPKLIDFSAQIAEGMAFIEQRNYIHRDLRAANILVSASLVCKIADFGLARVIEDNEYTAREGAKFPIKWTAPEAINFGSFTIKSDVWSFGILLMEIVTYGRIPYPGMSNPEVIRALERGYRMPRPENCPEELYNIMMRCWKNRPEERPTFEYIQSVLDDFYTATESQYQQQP

`CN1CCN([C@H]2CC[C@H](c3nc(-c4ccc(Oc5ccccc5)cc4F)c4c(N)ncnn43)CC2)CC1` [Example 163, 5-(2-fluoro-4-phenoxyphenyl)-7-((trans)-4-(4-methylpiperazin-1-yl)cyclohexyl)imidazo[5,1-f][1,2,4]triazin-4-amine]: in data set [1], the bioavailability in vivo entry was “higher bioavailability”, the “plasma clearance in vivo” value is “lower plasma clearance” and the “Dog BAV” value is reported as 51 % F. Besides, in data set [2], the “t1/2 in dog LM compared with the compound of example 1” value is recorded as “higher t1/2” and the half-life at 1 μM came to 1.8 h. In data set [3] (read-out: HCK IC50), the IC50 was determined as 1.1 nM. Moreover, in data set [3] (setting [4]), the IC50 was less than 50 nM.

On to `CN1CCN([C@H]2CC[C@H](n3nc(-c4ccc(Oc5ccccc5)cc4F)c4c(N)ncnc43)CC2)CC1` [Example 103, 3-(2-Fluoro-4-phenoxyphenyl)-1-((trans)-4-(4-methylpiperazin-1-yl)cyclohexyl)-1H-pyrazolo [3,4-d] pyrimidin-4-amine], for which, in data set [1], the bioavailability in vivo entry was “higher bioavailability”, the “plasma clearance in vivo” value is reported as “lower plasma clearance” and the “Dog BAV” value stood at 24 % F. For the same molecule, in data set [2], the “t1/2 in dog LM compared with the compound of example 1” value is listed as “higher t1/2” and the half-life at 1 μM was 0.967 h. For the same molecule, in data set [3] (read-out: HCK IC50), the IC50 amounted to 4.1 nM. Moreover, in data set [3] (setting [4]), the IC50 is less than 50 nM.

Take `C[C@H]1CN([C@H]2CC[C@H](n3nc(-c4ccc(Oc5ccccc5)cc4F)c4c(N)ncnc43)CC2)CCN1` [Example 127, 3-(2-fluoro-4-phenoxyphenyl)-1-((trans)-4-((S)-3-methylpiperazin-1-yl)cyclohexyl)-1H-pyrazolo[3,4-d]pyrimidin-4-amine]: in data set [1], the bioavailability in vivo entry is given as “higher bioavailability”, the “plasma clearance in vivo” value is on record as “lower plasma clearance” and the “Dog BAV” value came to 57 % F. Moreover, in data set [2], the “t1/2 in dog LM compared with the compound of example 1” value is recorded as “higher t1/2” and the half-life at 1 μM came to 1.97 h. In data set [3] (read-out: HCK IC50), the IC50 was determined as 5.1 nM. The IC50 in data set [3] (setting [4]) is less than 50 nM. For the same molecule, the “HCK potency relative to a comparator compound” value in data set [3] (example 127 versus example 21 and versus example 17) is recorded as “nearly an order of magnitude higher potency; also recorded: nearly three times greater potency”.
